SMILES strings stand for the structures.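 Briefly, cells in 96-well plates were exposed to five compound concentrations for 48 h, and endpoints were estimated by linear interpolation. GI50 is the concentration that inhibits growth by half.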 Activity calls are given as the source filed them. Cut-off read from the data, not from the text of the source: active = GI50 up to about 1.1 µM and inactive = higher.

Among the test systems are LOX IMVI; ACHN; NCI-H460; SK-MEL-2; Malme-3M; K562; OVCAR-3; OVCAR-4; NCI-H226; HL-60; M14; KM12; RPMI-8226; HCT-15; 786-0; MOLT-4; CAKI-1; A498.
Holding throughout (test): inhibition of tumour cell growth, NCI panel, 48 h

Consider `COc1ccc(C(C2=C(C)C(=O)c3ccccc3C2=O)c2ccc(C(C)C)cc(=O)c2O)cc1` (stereo not given), for which the GI50 is 3.55 µM (inactive) with LOX IMVI; 3.05 µM (inactive) with ACHN; 3.78 µM (inactive) in the experiment on NCI-H460; 1.16 µM (inactive) in the experiment with SK-MEL-2; 4.26 µM (inactive) in the experiment with Malme-3M; 3.55 µM (inactive) in the experiment on K562. The GI50 with OVCAR-3 is 2.68 µM (inactive); in the experiment on OVCAR-4 it was 6.49 µM (inactive); in the experiment with NCI-H226, 1.7 µM (inactive); in the experiment with HL-60, 2.61 µM (inactive); with M14, 2.53 µM (inactive); with KM12 it was 4.3 µM (inactive). Further, the GI50 was 3.74 µM (inactive) with RPMI-8226; 2.58 µM with HCT-15; 2.53 µM (inactive) in the experiment on 786-0; 3.47 µM (inactive) with MOLT-4; 3.03 µM (inactive) in the experiment with CAKI-1.

As for `COc1cc(/C=C/C(=O)c2sc(-n3nc(-c4ccccc4)cc3-c3ccccc3)nc2C)ccc1O`, the GI50 in the experiment with LOX IMVI is > 100 µM (inactive); with ACHN, > 100 µM (inactive); with NCI-H460 it was > 100 µM (inactive); in the experiment with SK-MEL-2, > 100 µM (inactive); in the experiment on Malme-3M it was > 100 µM (inactive); in the experiment on K562 it was 32.7 µM (inactive). Also, the GI50 is > 100 µM (inactive) in the experiment with OVCAR-3; > 100 µM (inactive) with NCI-H226; 49.9 µM (inactive) with HL-60; > 100 µM (inactive) in the experiment on A498; 15.5 µM (inactive) in the experiment on KM12; > 100 µM (inactive) in the experiment on RPMI-8226. In addition, the GI50 was 28.5 µM in the experiment with HCT-15, > 100 µM (inactive) in the experiment on 786-0, 17.5 µM (inactive) with MOLT-4 and 6.64 µM (inactive) with CAKI-1.

Consider `O=C1OC(O)c2cc3c(cc21)OCO3` (stereo not given), for which the GI50 in the experiment on LOX IMVI, with NCI-H460, with SK-MEL-2, with Malme-3M, in the experiment on K562 and in the experiment on OVCAR-3 was > 100 µM (inactive) throughout. Further, the GI50 in the experiment with OVCAR-4, with HL-60, in the experiment on A498, in the experiment on M14, in the experiment with KM12 and in the experiment on RPMI-8226 was > 100 µM (inactive) in each case. Further, the GI50 in the experiment on HCT-15 was > 100 µM; in the experiment with 786-0, > 100 µM (inactive); in the experiment on MOLT-4 it was > 100 µM (inactive); with CAKI-1 it was > 100 µM (inactive).

As for `COc1cc(CC(=O)c2cc3c(cc2-c2ccccc2)OCO3)cc(OC)c1OC`, the GI50 was 0.253 µM (active) in the experiment on LOX IMVI; 6.95 µM (inactive) with ACHN; 67.9 µM (inactive) in the experiment on NCI-H460; 44.2 µM (inactive) in the experiment with SK-MEL-2; 16.9 µM (inactive) with Malme-3M; 15.8 µM (inactive) in the experiment on K562. Moreover, the GI50 with OVCAR-3 is 31 µM (inactive); with OVCAR-4 it was 27.1 µM (inactive); with NCI-H226 it was 14 µM (inactive); with HL-60, 11.1 µM (inactive); with A498, 33.3 µM (inactive); in the experiment on M14, 45.9 µM (inactive). Besides, the GI50 with KM12 was > 100 µM (inactive); in the experiment on HCT-15, 66.5 µM; in the experiment with 786-0 it was > 100 µM (inactive); in the experiment with MOLT-4, 17.7 µM (inactive).

Consider `CCCCCCCCCCCCCCCC(=O)OCC1OC(N2C(=O)/C(=N\NC(N)=S)c3ccc([N+](=O)[O-])cc32)C(OC(C)=O)C1OC(C)=O` (stereo not given), for which the GI50 with LOX IMVI was 99.3 µM (inactive); with ACHN, 48.5 µM (inactive); in the experiment on NCI-H460, > 100 µM (inactive); in the experiment with SK-MEL-2 it was > 100 µM (inactive); in the experiment with Malme-3M it was > 100 µM (inactive); in the experiment with K562 it was > 100 µM (inactive). Besides, the GI50 with OVCAR-3 was 60.3 µM (inactive); in the experiment on OVCAR-4, > 100 µM (inactive); in the experiment with NCI-H226 it was > 100 µM (inactive); in the experiment on HL-60, > 100 µM (inactive); with M14, 62.2 µM (inactive); in the experiment with KM12, 74.1 µM (inactive). The GI50 is > 100 µM (inactive) in the experiment on RPMI-8226; 86.1 µM with HCT-15; > 100 µM (inactive) with 786-0; > 100 µM (inactive) with MOLT-4; > 100 µM (inactive) in the experiment with CAKI-1.

In the case of `COC1CCC(=C2C(=O)OC(C)(C)OC2=O)N1` (stereo not given), the GI50 in the experiment with LOX IMVI, in the experiment on ACHN, in the experiment with NCI-H460, in the experiment on SK-MEL-2, with Malme-3M and in the experiment with K562 was > 100 µM (inactive) each time. Moreover, the GI50 in the experiment with OVCAR-4, with NCI-H226, in the experiment with HL-60, in the experiment with M14, in the experiment with KM12 and in the experiment on RPMI-8226 was > 100 µM (inactive) each time. Besides, the GI50 in the experiment on HCT-15 is > 100 µM; in the experiment on 786-0, > 100 µM (inactive); in the experiment with MOLT-4, > 100 µM (inactive); in the experiment on CAKI-1 it was > 100 µM (inactive).

In the case of `Cc1cc2c(=O)cc(-c3ccc(O)cc3)oc2c(C(=O)O)c1C`, the GI50 in the experiment with LOX IMVI, in the experiment with ACHN, in the experiment on NCI-H460, with SK-MEL-2, in the experiment with Malme-3M and with K562 was > 100 µM (inactive) throughout. For the same compound, the GI50 in the experiment with OVCAR-3, in the experiment with OVCAR-4, in the experiment with NCI-H226, in the experiment on HL-60, in the experiment on M14 and with KM12 was > 100 µM (inactive) throughout. The GI50 was > 100 µM (inactive) in the experiment with RPMI-8226; > 100 µM in the experiment on HCT-15; > 100 µM (inactive) in the experiment on 786-0; > 100 µM (inactive) with MOLT-4; 22 µM (inactive) in the experiment on CAKI-1.

For `Nc1nc2c3nc(Nc4ccccc4)sc3nc(=S)n2c2sc(Nc3ccccc3)nc12`, the GI50 is > 100 µM (inactive) with ACHN; 47.4 µM (inactive) in the experiment on Malme-3M; > 100 µM (inactive) in the experiment with K562; > 100 µM (inactive) in the experiment on OVCAR-4; > 100 µM (inactive) in the experiment with NCI-H226; > 100 µM (inactive) with HL-60. Moreover, the GI50 in the experiment on A498 is > 100 µM (inactive); in the experiment with M14 it was > 100 µM (inactive); with HCT-15 it was > 100 µM; in the experiment with 786-0, 73.8 µM (inactive).

As for `CCOC(=O)C/N=c1\nc(SC)sc2c(C(=O)OCC)nc(Sc3ccccc3)n12`, the GI50 is 6.76 µM (inactive) in the experiment on LOX IMVI; 58.9 µM (inactive) with SK-MEL-2; 32.6 µM (inactive) in the experiment with Malme-3M; 16.1 µM (inactive) in the experiment on K562; 30.3 µM (inactive) in the experiment on OVCAR-3; 41.2 µM (inactive) in the experiment with OVCAR-4. Moreover, the GI50 is 26 µM (inactive) with NCI-H226; > 100 µM (inactive) in the experiment with HL-60; > 100 µM (inactive) in the experiment on M14; > 100 µM (inactive) in the experiment on KM12; 8.41 µM (inactive) in the experiment on RPMI-8226; 21.6 µM (inactive) in the experiment with 786-0. In addition, in the experiment with CAKI-1, the GI50 is 13.4 µM (inactive).

As to `COc1cc(OC)c2c(=O)c3cccc([N+](=O)[O-])c3n(C)c2c1`, the GI50 in the experiment on LOX IMVI was 80.4 µM (inactive); with SK-MEL-2 it was > 100 µM (inactive); in the experiment with Malme-3M, > 100 µM (inactive); with K562 it was > 100 µM (inactive); with OVCAR-4 it was > 100 µM (inactive); with HL-60, 31.3 µM (inactive). Besides, the GI50 in the experiment on M14 is > 100 µM (inactive); with KM12 it was > 100 µM (inactive); in the experiment with RPMI-8226 it was > 100 µM (inactive); in the experiment with HCT-15, > 100 µM; with 786-0, > 100 µM (inactive); with MOLT-4, 47 µM (inactive). In the experiment on CAKI-1, the GI50 was > 100 µM (inactive).

Consider `Cc1ccc(-c2cc(-c3ccco3)nc(N)n2)o1`, for which the GI50 in the experiment on LOX IMVI, with ACHN, in the experiment on NCI-H460, in the experiment with SK-MEL-2, in the experiment with Malme-3M and in the experiment with K562 was > 100 µM (inactive) throughout. The GI50 in the experiment with OVCAR-3, in the experiment with OVCAR-4, in the experiment with NCI-H226, with HL-60, in the experiment on M14 and in the experiment on KM12 was > 100 µM (inactive) throughout. In addition, the GI50 in the experiment with RPMI-8226 was > 100 µM (inactive); in the experiment on HCT-15, > 100 µM; in the experiment on 786-0, > 100 µM (inactive); in the experiment with MOLT-4 it was > 100 µM (inactive).

Turning to `[O-][S+](Cc1ccccc1)c1nc2ccccc2nc1-c1cccs1` (stereo not given), the GI50 in the experiment on ACHN was 13.9 µM (inactive); with NCI-H460, 20 µM (inactive); in the experiment with SK-MEL-2 it was 9.66 µM (inactive); with Malme-3M, 6.18 µM (inactive); in the experiment with K562 it was 5.38 µM (inactive); in the experiment with OVCAR-3 it was 11.2 µM (inactive). The GI50 in the experiment with OVCAR-4 is 5.78 µM (inactive); with NCI-H226, 4.06 µM (inactive); with HL-60 it was 3.49 µM (inactive); in the experiment on M14, 11 µM (inactive); with KM12 it was 16 µM (inactive); in the experiment with RPMI-8226, 17.9 µM (inactive). Further, the GI50 with HCT-15 is 9.29 µM; with 786-0, 11.3 µM (inactive); with MOLT-4, 3.53 µM (inactive).

In the case of `Cc1ccc2c(c1)-c1c3c(nn1C)-c1ccccc1SC3O2` (stereo not given), the GI50 was > 100 µM (inactive) in the experiment on LOX IMVI; 54.1 µM (inactive) with ACHN; 65.8 µM (inactive) in the experiment on NCI-H460; 64.9 µM (inactive) with SK-MEL-2; > 100 µM (inactive) in the experiment on Malme-3M; 35.1 µM (inactive) with K562. Besides, the GI50 in the experiment with OVCAR-3 was 85.9 µM (inactive); in the experiment with HL-60, 24.5 µM (inactive); in the experiment with A498 it was 49.7 µM (inactive); with KM12 it was 38.6 µM (inactive); with RPMI-8226, 21.8 µM (inactive); in the experiment on 786-0 it was > 100 µM (inactive). Besides, the GI50 in the experiment on MOLT-4 is 26.1 µM (inactive).

The values are drawn from ChEMBL document CHEMBL1201862, “PubChem BioAssay data set” (2004).
